Assay results: patent US20040229816A1, “Anti-angiogenic and anti-tumoral properties of beta and gamma secretase inhibitors” (priority 2003, published 2004)
Entries after “also recorded” stand apart in the source; their conditions may differ. Like-named read-outs stand apart in the source and are kept apart here. Peptide text beside a SMILES is read from it. * marks the point of attachment. Cbz = O=C(OCc1ccccc1)*

Experiments:
APP [1] = assay: carboxyl-terminal APP fragments in human brain endothelial cell lysates (immunoblotting); type: cell-based; settings: 5 μM, 24 hours
Description: (§1) Confluent human brain endothelial cells (grown on 75 cm2 flasks with EBM 4% FBS medium) were treated for 24 hours with 5 μM of Z-VVL-CHO, 5 μM of L-685,458, 5 μM of OM99-2, 5 AM of DAPT or went untreated (control). Experiments were done in quadriplicate for each treatment condition. 6E10 (Signet), a mAb that recognizes residues 1-17 of human Aβ (Van Nostrand et al., Nature, 341, 546-549, 1989) was used to immunoprecipitate soluble APP generated following cleavage by α-secretase from cell culture medium. Immunoprecipitated material was resolved on a 4-20% gradient SDS-PAGE, transferred to PVDF membranes and immunodetected with mAb 22C11 (Roche Diagnostics) that recognizes the amino acids 66-81 of the N-terminal portion of APP (Hibich, C., J. Biol. Chem., 268, 26571-26577, 1993). Human brain endothelial cells were lysed on ice using MPERTM reagent (Pierce) supplemented with 1 mM PMSF and 1 mM of sodium-orthovanadate. Samples were sonicated and centrifuged at 10,000 g for 30 min at 4° C. The protein content of the lysates was determined using the BCA Protein assay kit (Pierce). Total lysates ([…] of protein/sample) were separated on a 4-20% gradient SDS-PAGE and transferred to PVDF membranes and immunoprobed with mAb 22C11 in order to detect full length APP and also immunoprobed with an Anti-APP-CT20 (Calbiochem) antibody which recognizes the amino acid residues 751-770 of the carboxyl terminal region of APP (Pinnix et al. 2001; J. Biol. Chem., 276, 481).

[2] = test system: human lung adenocarcinoma (A-549) xenografts; assay: human lung adenocarcinoma A-549 xenografts in nude mice; type: in vivo; settings: Z-VLL-CHO 5 mg/Kg; for vascularization (vascular index) of A-549 tumors versus vehicle: DAPT 10 mg/Kg intraperitoneally, CD31/PECAM-1 immunostaining; for growth (tumor volume) of A-549 xenografts versus vehicle: intraperitoneally everyday for 12 days, DAPT 10 mg/Kg
Description: FIG. 9a: Anti-tumoral effect of the γ-secretase inhibitor DAPT and of the β-secretase inhibitor Z-VLL-CHO on human lung adenocarcinoma (A-549) xenografts growth rates. A-549 cells (8.5×10^6) were injected subcutaneously into both flanks of 8-10 weeks-old nude mice. Mice were injected intraperitoneally with either the vehicle, 5 mg/Kg of body weight of the β-secretase inhibitor Z-VLL-CHO or 10 mg/Kg of body weight of the γ-secretase inhibitor DAPT, starting when tumors had reached a mean tumor volume of approximately 200 mm^3 (day 21 post implantation). Injections were given everyday for 12 days. […] FIG. 9b: Representative pictures of sections of lung adenocarcinoma tumors immunostained with CD31 antibodies. FIG. 9c: Histogram depicting the quantification of the vascularization of lung adenocarcinoma tumors.
FIG. 10: Anti-tumoral effect of the γ-secretase inhibitor JLK-6 on human lung adenocarcinoma (A-549) xenografts growth rates. A-549 cells (8.5×10^6) were injected subcutaneously into both flanks of 8-10 weeks-old nude mice. Mice were injected intraperitoneally everyday from Day 16 (when the tumors reached a volume of approximately 150 mm^3) with either the vehicle or 5 mg/Kg of body weight of the γ-secretase inhibitor JLK-6.
The human glioblastoma U-87 MG and human lung adenocarcinoma A-549 cell lines were obtained from American Tissue Culture Type Collection (Manassas, Va.) and were grown in DMEM containing 1×penicilline-streptomycine-fungizone and 10% fetal bovine serum at 37° C. in a humidified atmosphere of 5% CO2. Tumor cells (6×106) in 100 μl of PBS were inoculated subcutaneously into both flanks of 8-10-week-old female nude mice (Harland). Tumor volume (in mm^3) was determined using the formula (length×width^2)/2, where length was the longest axis and width the measurement at right angles to the length (Clarke et al. 2000). When the tumor volumes reached approximately 150 mm^3, animals were treated intraperitoneally everyday with 100 μl of 50% DMSO/H2O (vehicle group), 5 mg/Kg of body weight of Z-VLL-CHO (β-secretase inhibitor), 5 mg/Kg of JLK-6 (γ-secretase inhibitor) or with 10 mg/Kg of body weight of DAPT. Data were expressed as mean tumor volume±S.E for each treatment group.
At the completion of the study, animals were humanely euthanized and tumors were harvested and fixed in paraformaldehyde 4% overnight at 4° C. After paraffin embedding in an automated tissue processing Sakura Tissue-Tek (E150) (Torrence, Calif.), samples were cut into 5 μm sections, deparafinized, and rehydrated through a graded series of alcohol. Sections were treated with 0.02 mg/ml Proteinase K (Gentra Systems, MN) for 15 minutes at 37° C. to allow for proper antigen retrieval, washed several times in PBS and incubated for 15 minutes in a 0.3% solution of hydrogen peroxide. Sections were blocked and then immunostained with a 1:40 dilution of a PECAM-1 antibody (BD-Pharmingen, CA) overnight at 4° C. in a humidification chamber. Vector ABC Kits (Vector Laboratories Inc, CA) where used following the manufacturer's instruction for the immunostaining. Quantification of tumor vascularization was performed using the stereological dissector method. Briefly, forty consecutive sections were taken from a randomly chosen starting point in each tumor. Five sections for each tumor were selected for stereology by taking one section every eight sections. A dissector counting frame was used with inclusion and exclusion lines throughout the reference area. Vessel count was performed at ×400 magnification with the use of an Olympus microscope connected to a digital video camera. Microvessels were counted in the dissector frame by an experimenter unaware of the different treatment conditions. For each tumor an average vessel count per area of dissector frame was determined. A vascular index was calculated by expressing the vessel count as a percentage of the vessel count in the vehicle treatment condition.

[3] = test system: Human middle cerebral artery endothelial cells; assay: capillary morphogenesis assay; type: cell-based
Description: Two hundred μl of Matrigel were placed into each well of a 24-well culture plate at 4° C. and allowed to polymerize by incubation at 37° C. Human middle cerebral artery endothelial cells (5×104) were seeded on the Matrigel in 1 ml of EBM containing 4% fetal calf serum. The cells were incubated at 37° C. for 20 hours in a humidified 5% CO2 atmosphere in the presence or absence of various doses of γ-secretase and β-secretase inhibitors as indicated in the figure legends. The experiments were performed in quadruplicate for each treatment condition. For each culture, 2 randomly chosen fields were photographed using a 4×objective. An experimenter unaware of the different treatments measured the total length of tube structures in each photograph using the Image Pro Plus software (Media Cybernetic, Inc., Md.). Capillary network lengths for the different treatment conditions were expressed as the percentage of capillary network lengths obtained in the control condition.

APP [4] = assay: α-sAPP secretion by human brain endothelial cells (immunoprecipitation, immunoblotting); type: cell-based; settings: 5 μM, 24 hours
Description: as §1

β-secretase = target: T1, β-secretase (Cricetulus griseus, UniProt G3IAK4); settings: Chinese hamster ovary cells, wild-type APP751, cited from earlier work
T1 construct: endogenous in cells; host or cells: Chinese hamster ovary cells stably transfected with wild-type APP751
T1 sequence (G3IAK4 22-501): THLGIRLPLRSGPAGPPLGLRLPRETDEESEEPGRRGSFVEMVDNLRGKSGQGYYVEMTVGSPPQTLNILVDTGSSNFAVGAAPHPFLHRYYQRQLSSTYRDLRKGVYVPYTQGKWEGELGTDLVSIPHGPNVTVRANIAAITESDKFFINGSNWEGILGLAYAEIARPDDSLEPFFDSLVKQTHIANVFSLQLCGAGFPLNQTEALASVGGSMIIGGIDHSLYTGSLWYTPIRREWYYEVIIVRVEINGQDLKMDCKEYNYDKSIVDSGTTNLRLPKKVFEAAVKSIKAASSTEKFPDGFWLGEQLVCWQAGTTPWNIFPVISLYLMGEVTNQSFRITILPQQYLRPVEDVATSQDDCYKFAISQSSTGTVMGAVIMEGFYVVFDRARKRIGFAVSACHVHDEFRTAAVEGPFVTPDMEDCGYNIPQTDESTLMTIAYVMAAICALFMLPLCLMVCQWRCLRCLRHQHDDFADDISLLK

Row | SMILES | accumulation of carboxyl-terminal APP fragments (APP CTF) (APP [1]) | vascularization (vascular index) of A-549 tumors versus vehicle [2] | growth (tumor volume) of A-549 xenografts versus vehicle [2] | formation of capillary structures, overall [3] | secretion of α-sAPP (APP [4]) | secretion of α-sAPP (APP [4]; listed as Z-VVL-CHO) | IC50 (β-secretase; read-out: formation of Aβ42, IC50) | IC50 (β-secretase; read-out: formation of Aβtotal, IC50)
1 | C[C@H](NC(=O)Cc1cc(F)cc(F)c1)C(=O)N[C@H](C(=O)OC(C)(C)C)c1ccccc1 [DAPT, N-[N-(3,5-difluorophenacetyl-L-alanyl)]-S-phenylglycine t-butyl ester] | stimulates; also recorded: promoted the accumulation | appeared to be decreased; also recorded: significantly reduce the vascularization | potently suppressed the growth; also recorded: significantly inhibit the growth |  |  |  |  | 
2 | CC(C)C[C@@H](C=O)NC(=O)[C@H](CC(C)C)NC(=O)[C@@H](NC(=O)OCc1ccccc1)C(C)C [Z-VLL-CHO, N-benzyloxycarbony-val-leu-leucinal] (Cbz-Val-Leu-Leu-aldehyde) |  | appeared to be decreased; also recorded: significantly reduce the vascularization | potently suppressed the growth; also recorded: significantly inhibit the growth | profoundly anti-angiogenic | stimulated | significantly inceases | 2.5 µM | 0.7 µM
